Reference: publication PMC11081424 (Protein Science : A Publication of the Protein Society, 2024)

Molecular target: T1, TPARED (Comamonas sp., UniProt Q3C1E0)
T1 sequence (Q3C1E0 1-336): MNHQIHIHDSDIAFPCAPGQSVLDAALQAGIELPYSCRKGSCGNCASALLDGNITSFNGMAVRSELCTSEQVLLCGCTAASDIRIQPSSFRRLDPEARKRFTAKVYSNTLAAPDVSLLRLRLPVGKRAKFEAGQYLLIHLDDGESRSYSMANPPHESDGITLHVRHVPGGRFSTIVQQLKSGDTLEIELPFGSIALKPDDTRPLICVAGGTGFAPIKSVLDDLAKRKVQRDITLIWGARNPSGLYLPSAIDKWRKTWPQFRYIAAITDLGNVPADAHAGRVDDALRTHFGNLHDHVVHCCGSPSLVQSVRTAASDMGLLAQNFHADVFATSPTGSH
Test: FAD released by acid denaturation, UV/vis at […] nm
Assay type: binding
Conditions: as purified, three purifications

equivalents of FAD per protein: 0.95 ± 0.08 equivalents
SMILES: Cc1cc2nc3c(=O)[nH]c(=O)nc-3n(C[C@H](O)[C@H](O)[C@H](O)COP(=O)(O)OP(=O)(O)OC[C@H]3O[C@@H](n4cnc5c(N)ncnc54)[C@H](O)[C@@H]3O)c2cc1C [FAD]
